Test results: patent US11814444B2, “Cyclic polypeptides for PCSK9 inhibition” (Ra Pharmaceuticals, Inc., priority 2018, dated 2023)
Numbered stars: 1 amine (or outer) side, 2 acyl side, 3 side chain; on linkers, the order of the positions; unused ones are H or OH. Bridge positions count the residues as written; N and C are the ends. Square brackets hold non-standard residues; d marks the D form. Peptide text beside a SMILES is read from it. Phe(4-CF3) = N[C@@H](Cc1ccc(C(F)(F)F)cc1)C(=O)O; Trp(7-aza) = N[C@@H](Cc1c[nH]c2ncccc12)C(=O)O; NMePhe(4-F) = CN[C@@H](Cc1ccc(F)cc1)C(=O)O; mXylylene = c1cc(C[*:1])cc(C[*:2])c1; pXylylene = c1cc(C[*:2])ccc1C[*:1]; Ala(cPr) = N[C@@H](CC1CC1)C(=O)O; 2Pal = N[C@@H](Cc1ccccn1)C(=O)O; 3Pal = N[C@@H](Cc1cccnc1)C(=O)O; 4Pal = N[C@@H](Cc1ccncc1)C(=O)O; Tle = CC(C)(C)[C@H](N)C(=O)O; αMeV = CC(C)[C@](C)(N)C(=O)O; Dpg = CCCC(N)(CCC)C(=O)O; Iva = CC[C@](C)(N)C(=O)O; Nva = CCC[C@H](N)C(=O)O; Ac3c = NC1(C(=O)O)CC1; Aib = CC(C)(N)C(=O)O; Mpa = O=C(O)CCS

How the values were obtained:
[1] = molecular target: human PCSK9 / human LDLR EGFa domain interaction (Homo sapiens, UniProt Q8NBP7); assay: TR-FRET assay of inhibition of the PCSK9-LDLR protein-protein interaction; type: binding; conditions: 20 nM avitag-biotinylated human PCSK9, 20 nM his-tagged human LDLR EGFa domain, 2 hours, room temperature
human PCSK9 / human LDLR EGFa domain interaction, sequence (Q8NBP7 153-692): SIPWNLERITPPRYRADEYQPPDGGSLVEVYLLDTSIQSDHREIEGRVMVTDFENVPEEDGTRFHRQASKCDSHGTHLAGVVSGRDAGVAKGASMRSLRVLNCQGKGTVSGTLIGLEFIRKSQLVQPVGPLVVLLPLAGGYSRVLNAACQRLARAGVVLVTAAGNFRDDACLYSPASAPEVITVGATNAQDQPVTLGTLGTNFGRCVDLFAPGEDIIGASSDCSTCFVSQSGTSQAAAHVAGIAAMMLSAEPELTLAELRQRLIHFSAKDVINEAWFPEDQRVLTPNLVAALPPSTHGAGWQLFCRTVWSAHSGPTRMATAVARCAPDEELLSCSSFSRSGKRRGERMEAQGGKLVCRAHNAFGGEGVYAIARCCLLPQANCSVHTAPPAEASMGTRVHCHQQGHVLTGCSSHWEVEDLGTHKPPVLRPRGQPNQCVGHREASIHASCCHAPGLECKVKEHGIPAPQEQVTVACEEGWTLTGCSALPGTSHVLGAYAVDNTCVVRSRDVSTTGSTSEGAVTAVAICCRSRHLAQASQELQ
human PCSK9 / human LDLR EGFa domain interaction, sequence (Q8NBP7 31-152 partner limits assumed): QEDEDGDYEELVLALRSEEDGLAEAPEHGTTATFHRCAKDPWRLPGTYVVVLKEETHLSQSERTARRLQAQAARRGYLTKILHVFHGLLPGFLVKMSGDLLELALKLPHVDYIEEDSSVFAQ
Method in brief: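 Compounds in dose-response are mixed with 20 nM human PCSK9 (avitag-biotinylated) and 20 nM his-tagged LDLR EGFa domain, plus 5 nM each streptavidin-Ulight and Eu-anti-6×His. After 2 h at room temperature in HEPES/NaCl/CaCl2 buffer with BSA and P20, TR-FRET is read and IC50 fitted (4-parameter).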

PCSK9 = PCSK9 (Homo sapiens, UniProt Q8NBP7); assay: PCSK9 Alexa FRET Standard assay (displacement of AlexaFluor647 tagged cyclic peptide Reagent A); type: binding; conditions: 0.5 nM PCSK9, 20 nM AF cyclic peptide Reagent A
PCSK9, sequence (Q8NBP7 153-692): as the sequence (Q8NBP7 153-692) above
Method: A solution containing 1 nM biotinylated PCSK9+2.5 nM Lance Streptavidin Europium (Strep-Eu) was made in 50 mM HEPES pH 7.4, 0.15 M NaCl, 5 mM CaCl2), 0.01% BSA, and 0.01% Surfactant P20. A separate solution containing 40 nM of the AlexaFluor tagged cyclic peptide was made in the same buffer system. An Echo was used to transfer 0.750 ul of compound to an assay plate followed by the addition of 15 ul of PCSK9+Stept-Eu and 15 ul of AF peptide. The final assay volume was 30.750 ul containing 0.5 nM PCSK9, 1.25 nM Strep-Eu, and 20 nM AF cyclic peptide. The reaction was incubated at room temperature for at least two hours prior to fluorescence measurements using an Envision Multilabel Reader. IC50 values were determined by fitting data to a sigmoidal dose-response curve using nonlinear regression. Ki was then calculated from the IC50 and the KD of AF cyclic peptide. Counts (B-counts) of the europium-labeled PCSK9 were followed to observe if compounds were […]. A fall off of the B-counts likely indicated a false positive of inhibition. Data from this procedure was reported as “A=‘numerical value’ (nanomolar)”

| IC50 [1] [µM] | IC50 (PCSK9) [µM] | SMILES |
| --- | --- | --- |
| 21 to 50 | 1 to 21 | CC[C@]1(C)NC(=O)[C@H](Cc2c[nH]c3ncccc23)NC(=O)[C@H]([C@@H](C)O)NC(=O)[C@@H]2CCCN2C(=O)[C@H](Cc2ccc(O)cc2)NC(=O)[C@H](C(C)(C)C)NC(=O)[C@@H](NC(C)=O)CSCc2cccc(c2)CSC[C@@H](C(N)=O)NC(=O)[C@H]([C@@H](C)O)NC(=O)[C@](C)(C(C)C)NC(=O)[C@H](Cc2ccc(O)cc2)NC(=O)[C@H](C)NC1=O [Compound 182] (Ac-C[Tle]YPT[Trp(7-aza)][Iva]AY[αMeV]TC-NH2; linker 1-12 via mXylylene) |
| 0.001 to 0.1 | 0.001 to 0.1 | CC(=O)N[C@H]1CSCc2cccc(c2)CSC[C@H](C(N)=O)NC(=O)[C@H]([C@@H](C)O)NC(=O)[C@](C)(C(C)C)NC(=O)[C@H](Cc2ccc(O)cc2)NC(=O)[C@H](C)NC(=O)C2(CC2)NC(=O)[C@H](Cc2c[nH]c3ncccc23)NC(=O)[C@H]([C@@H](C)O)NC(=O)[C@@H]2CCCN2C(=O)[C@H](Cc2ccc(O)cc2)NC(=O)[C@H](C(C)(C)C)NC1=O [Compound 191] (Ac-C[Tle]YPT[Trp(7-aza)][Ac3c]AY[αMeV]T[dC]-NH2; linker 1-12 via mXylylene) |
| 1 to 21 | 1 to 21 | CCCC1(CCC)NC(=O)[C@H](Cc2c[nH]c3ncccc23)NC(=O)[C@H]([C@@H](C)O)NC(=O)[C@@H]2CCCN2C(=O)[C@H](Cc2ccc(O)cc2)NC(=O)[C@H](C(C)(C)C)NC(=O)[C@@H](NC(C)=O)CSCc2cccc(c2)CSC[C@H](C(N)=O)NC(=O)[C@H]([C@@H](C)O)NC(=O)[C@](C)(C(C)C)NC(=O)[C@H](Cc2ccc(O)cc2)NC(=O)[C@H](C)NC1=O [Compound 188] (Ac-C[Tle]YPT[Trp(7-aza)][Dpg]AY[αMeV]T[dC]-NH2; linker 1-12 via mXylylene) |
| 1 to 21 | 1 to 21 | CCC[C@@H]1NC(=O)[C@H](Cc2c[nH]c3ncccc23)NC(=O)[C@H]([C@@H](C)O)NC(=O)[C@H](Cc2c[nH]cn2)NC(=O)[C@H](Cc2ccc(O)cc2)NC(=O)[C@H](C(C)(C)C)NC(=O)CCSCc2cccc(c2)CSC[C@@H](C(N)=O)NC(=O)[C@H]([C@@H](C)O)NC(=O)[C@H](CCC)NC(=O)[C@H](Cc2ccc(C(F)(F)F)cc2)NC(=O)[C@H](CCC(=O)O)NC1=O [Compound 260] ([Mpa][Tle]YHT[Trp(7-aza)][Nva]E[Phe(4-CF3)][Nva]TC-NH2; linker 1-12 via mXylylene) |
|  | 50 to 100 | CCC[C@@H]1NC(=O)[C@H](Cc2ccc(O)cc2)NC(=O)[C@H](CCC(=O)O)NC(=O)[C@H](Cc2c[nH]c3ncccc23)NC(=O)[C@H]([C@@H](C)O)NC(=O)[C@H](Cc2c[nH]cn2)NC(=O)[C@H](Cc2ccc(O)cc2)NC(=O)[C@H](C(C)(C)C)NC(=O)CCSCc2cccc(c2)CSC[C@@H](C(N)=O)NC(=O)[C@H]([C@@H](C)O)NC1=O [Compound 248] ([Mpa][Tle]YHT[Trp(7-aza)]EY[Nva]TC-NH2; linker 1-11 via mXylylene) |
|  | 50 to 100 | CCC[C@@H]1NC(=O)[C@H](Cc2ccncc2)NC(=O)[C@H]([C@@H](C)O)NC(=O)[C@H](Cc2c[nH]cn2)NC(=O)[C@H](Cc2ccc(O)cc2)NC(=O)[C@H](C(C)(C)C)NC(=O)CCSCc2cccc(c2)CSC[C@@H](C(N)=O)NC(=O)[C@H]([C@@H](C)O)NC(=O)[C@H](CCC)NC(=O)[C@H](Cc2ccc(O)cc2)NC(=O)[C@H](CCC(=O)O)NC1=O [Compound 270] ([Mpa][Tle]YHT[4Pal][Nva]EY[Nva]TC-NH2; linker 1-12 via mXylylene) |
|  | 50 to 100 | CCC[C@H](NC(C)=O)C(=O)N[C@H]1CSCc2cccc(c2)CSC[C@@H](C(N)=O)NC(=O)[C@H]([C@@H](C)O)NC(=O)[C@H](CCC)NC(=O)[C@H](Cc2ccc(O)cc2)NC(=O)[C@H](CCC(=O)O)NC(=O)[C@H](CCC)NC(=O)[C@H](C)NC(=O)[C@H]([C@@H](C)O)NC(=O)[C@H](Cc2cnc[nH]2)NC(=O)[C@H](Cc2ccc(O)cc2)NC(=O)[C@H](C(C)(C)C)NC1=O [Compound 230] (Ac-[Nva]C[Tle]YHTA[Nva]EY[Nva]TC-NH2; linker 2-13 via mXylylene) |
|  | 50 to 100 | CCC[C@@H]1NC(=O)[C@H](Cc2ccc(O)cc2)NC(=O)[C@H](CCC(=O)O)NC(=O)[C@H](CCC)NC(=O)[C@H]([C@@H](C)O)NC(=O)[C@H](Cc2c[nH]cn2)NC(=O)[C@H](Cc2ccc(O)cc2)NC(=O)[C@H](C(C)(C)C)NC(=O)CCSCc2ccc(cc2)CSC[C@@H](C(N)=O)NC(=O)[C@H]([C@@H](C)O)NC1=O [Compound 251] ([Mpa][Tle]YHT[Nva]EY[Nva]TC-NH2; linker 1-11 via pXylylene) |
|  | 50 to 100 | CCC[C@@H]1NC(=O)[C@H](Cc2c[nH]c3ncccc23)NC(=O)[C@H]([C@@H](C)O)NC(=O)[C@H](Cc2cccnc2)NC(=O)[C@H](Cc2ccc(O)cc2)NC(=O)[C@H](C(C)(C)C)NC(=O)CCSCc2cccc(c2)CSC[C@@H](C(N)=O)NC(=O)[C@H]([C@@H](C)O)NC(=O)[C@H](CCC)NC(=O)[C@H](Cc2ccc(O)cc2)NC(=O)[C@H](CCC(=O)O)NC1=O [Compound 113] ([Mpa][Tle]Y[3Pal]T[Trp(7-aza)][Nva]EY[Nva]TC-NH2; linker 1-12 via mXylylene) |
|  | 21 to 50 | CCC[C@@H]1NC(=O)[C@H](Cc2c[nH]c3ncccc23)NC(=O)[C@H]([C@@H](C)O)NC(=O)[C@H](Cc2ccccn2)NC(=O)[C@H](Cc2ccc(O)cc2)NC(=O)[C@H](C(C)(C)C)NC(=O)CCSCc2cccc(c2)CSC[C@@H](C(N)=O)NC(=O)[C@H]([C@@H](C)O)NC(=O)[C@H](CCC)NC(=O)[C@H](Cc2ccc(O)cc2)NC(=O)[C@H](CCC(=O)O)NC1=O [Compound 114] ([Mpa][Tle]Y[2Pal]T[Trp(7-aza)][Nva]EY[Nva]TC-NH2; linker 1-12 via mXylylene) |
|  | 50 to 100 | CCC[C@@H]1NC(=O)[C@H](Cc2cccnc2)NC(=O)[C@H]([C@@H](C)O)NC(=O)[C@H](Cc2c[nH]cn2)NC(=O)[C@H](Cc2ccc(O)cc2)NC(=O)[C@H](C(C)(C)C)NC(=O)CCSCc2cccc(c2)CSC[C@@H](C(N)=O)NC(=O)[C@H]([C@@H](C)O)NC(=O)[C@H](CCC)NC(=O)[C@H](Cc2ccc(O)cc2)NC(=O)[C@H](CCC(=O)O)NC1=O [Compound 272] ([Mpa][Tle]YHT[3Pal][Nva]EY[Nva]TC-NH2; linker 1-12 via mXylylene) |
|  | 1 to 21 | CCC[C@@H]1NC(=O)[C@H](Cc2c[nH]c3ncccc23)NC(=O)[C@H]([C@@H](C)O)NC(=O)[C@H](Cc2c[nH]cn2)NC(=O)[C@H](Cc2ccc(O)cc2)NC(=O)[C@H](C(C)(C)C)NC(=O)CCSCc2cccc(c2)CSC[C@@H](C(N)=O)NC(=O)[C@H]([C@@H](C)O)NC(=O)[C@H](CCC)NC(=O)[C@H](Cc2ccccc2)NC(=O)[C@H](CCC(=O)O)NC1=O [Compound 256] ([Mpa][Tle]YHT[Trp(7-aza)][Nva]EF[Nva]TC-NH2; linker 1-12 via mXylylene) |
|  | 1 to 21 | CC(=O)N[C@H]1CSCc2cccc(c2)CSC[C@@H](C(N)=O)NC(=O)[C@H]([C@@H](C)O)NC(=O)[C@H](C)NC(=O)[C@H](Cc2ccc(O)cc2)NC(=O)[C@H](CCC(=O)O)NC(=O)[C@H](C)NC(=O)[C@H](Cc2c[nH]c3ncccc23)NC(=O)[C@H]([C@@H](C)O)NC(=O)[C@H](Cc2c[nH]cn2)NC(=O)[C@H](Cc2ccc(O)cc2)NC(=O)[C@H](C(C)(C)C)NC1=O [Compound 242] (Ac-C[Tle]YHT[Trp(7-aza)]AEYATC-NH2; linker 1-12 via mXylylene) |
|  | 50 to 100 | CCC[C@@H]1NC(=O)[C@H](Cc2c[nH]c3ncccc23)NC(=O)[C@H]([C@@H](C)O)NC(=O)[C@H](Cc2c[nH]cn2)NC(=O)[C@H](Cc2ccc(O)cc2)NC(=O)[C@H](C(C)(C)C)NC(=O)CCSCc2cccc(c2)CSC[C@@H](C(N)=O)NC(=O)[C@H]([C@@H](C)O)NC(=O)[C@H](CCC)NC(=O)[C@H](Cc2ccc(F)cc2)N(C)C(=O)[C@H](CCC(=O)O)NC1=O [Compound 267] ([Mpa][Tle]YHT[Trp(7-aza)][Nva]E[NMePhe(4-F)][Nva]TC-NH2; linker 1-12 via mXylylene) |
|  | 1 to 21 | CCC[C@@H]1NC(=O)[C@H](Cc2c[nH]c3ncccc23)NC(=O)[C@H]([C@@H](C)O)NC(=O)[C@H](Cc2c[nH]cn2)NC(=O)[C@H](Cc2ccc(O)cc2)NC(=O)[C@H](C(C)(C)C)NC(=O)CCSCc2cccc(c2)CSC[C@@H](C(N)=O)NC(=O)[C@H]([C@@H](C)O)NC(=O)[C@H](CC2CC2)NC(=O)[C@H](Cc2ccc(O)cc2)NC(=O)[C@H](CCC(=O)O)NC1=O [Compound 262] ([Mpa][Tle]YHT[Trp(7-aza)][Nva]EY[Ala(cPr)]TC-NH2; linker 1-12 via mXylylene) |
|  | 21 to 50 | CCC[C@@H]1NC(=O)[C@H](Cc2c[nH]c3ncccc23)NC(=O)[C@H]([C@@H](C)O)NC(=O)C(C)(C)NC(=O)[C@H](Cc2ccc(O)cc2)NC(=O)[C@H](C(C)(C)C)NC(=O)CCSCc2cccc(c2)CSC[C@@H](C(N)=O)NC(=O)[C@H]([C@@H](C)O)NC(=O)[C@H](CCC)NC(=O)[C@H](Cc2ccc(O)cc2)NC(=O)[C@H](CCC(=O)O)NC1=O [Compound 005] ([Mpa][Tle]Y[Aib]T[Trp(7-aza)][Nva]EY[Nva]TC-NH2; linker 1-12 via mXylylene) |
